From US11866450B2, “Modulators of Cystic Fibrosis Transmembrane Conductance regulator, pharmaceutical compositions, methods of treatment, and process for making the modulators” (priority 2018, dated 2024)

Biological target: CFTR-mediated chloride transport (Homo sapiens, UniProt P13569)
Format: cell-based
Details: enteroid cells incubated with test compound 18-24 hours, acute 10 μM forskolin and 300 nM Compound III; for Max. Activity: % of chloride transport with 3 μM Compound A, 3 μM Compound II and 300 nM acute Compound III triple combination control
Method in brief: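 Membrane-potential fluorescence AUC over 15 min quantified CFTR chloride transport after acute forskolin (10 μM), IBMX (100 μM) and Compound III (300 nM) in chloride-free buffer. Human enteroid cells were pretreated with compound for 18–24 h; % Activity is relative to 3 μM Compound A + 3 μM Compound II + 300 nM Compound III.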

Chain of CFTR-mediated chloride transport (P13569 whole entry, looked up): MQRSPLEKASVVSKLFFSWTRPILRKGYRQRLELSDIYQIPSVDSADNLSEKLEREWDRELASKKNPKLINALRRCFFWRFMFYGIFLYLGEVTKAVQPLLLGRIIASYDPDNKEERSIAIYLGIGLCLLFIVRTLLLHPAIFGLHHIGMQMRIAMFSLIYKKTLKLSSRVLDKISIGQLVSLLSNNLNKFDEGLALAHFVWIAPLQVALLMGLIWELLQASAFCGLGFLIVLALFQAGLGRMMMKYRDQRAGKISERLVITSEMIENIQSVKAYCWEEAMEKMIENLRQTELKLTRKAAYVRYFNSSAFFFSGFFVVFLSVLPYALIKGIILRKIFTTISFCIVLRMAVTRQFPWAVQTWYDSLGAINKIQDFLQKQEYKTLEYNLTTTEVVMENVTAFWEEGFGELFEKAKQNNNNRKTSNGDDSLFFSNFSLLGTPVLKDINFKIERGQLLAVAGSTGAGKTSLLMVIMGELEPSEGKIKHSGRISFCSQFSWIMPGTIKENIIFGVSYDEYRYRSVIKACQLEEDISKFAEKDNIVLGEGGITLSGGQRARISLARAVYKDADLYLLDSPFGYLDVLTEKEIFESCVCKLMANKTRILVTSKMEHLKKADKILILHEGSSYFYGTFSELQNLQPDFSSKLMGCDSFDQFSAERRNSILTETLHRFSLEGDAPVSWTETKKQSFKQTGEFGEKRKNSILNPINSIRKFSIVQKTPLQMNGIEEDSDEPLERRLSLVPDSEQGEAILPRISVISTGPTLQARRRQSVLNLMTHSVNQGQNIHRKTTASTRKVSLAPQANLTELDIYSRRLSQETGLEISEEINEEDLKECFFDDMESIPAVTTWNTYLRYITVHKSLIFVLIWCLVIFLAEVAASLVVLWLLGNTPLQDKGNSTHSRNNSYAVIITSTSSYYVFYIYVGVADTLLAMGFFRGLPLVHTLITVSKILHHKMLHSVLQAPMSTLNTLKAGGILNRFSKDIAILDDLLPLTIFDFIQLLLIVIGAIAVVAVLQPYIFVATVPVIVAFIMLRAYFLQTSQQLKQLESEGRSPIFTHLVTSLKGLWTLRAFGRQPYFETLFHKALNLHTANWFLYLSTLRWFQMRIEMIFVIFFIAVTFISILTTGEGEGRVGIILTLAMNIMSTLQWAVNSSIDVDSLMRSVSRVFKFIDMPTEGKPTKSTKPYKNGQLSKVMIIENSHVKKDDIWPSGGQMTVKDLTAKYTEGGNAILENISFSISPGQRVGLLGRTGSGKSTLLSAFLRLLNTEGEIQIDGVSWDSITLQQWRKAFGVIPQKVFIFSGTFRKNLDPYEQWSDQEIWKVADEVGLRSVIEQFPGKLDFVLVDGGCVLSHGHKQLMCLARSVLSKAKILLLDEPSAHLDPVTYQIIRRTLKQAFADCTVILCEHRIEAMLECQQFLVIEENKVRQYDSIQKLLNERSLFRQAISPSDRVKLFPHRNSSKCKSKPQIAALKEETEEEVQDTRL

| Structure (SMILES) | EC50 | Max. Activity |
| --- | --- | --- |
| CC1(C)C[C@H]2CCNc3cccc(n3)S(=O)(=O)NC(=O)c3ccc(-n4ccc(OCC5(C(F)(F)F)CC5)n4)nc3N1C2 (single isomer, unassigned) [Compound 6, 7,7-dimethyl-11-(3-{[1-(trifluoromethyl)cyclopropyl]methoxy}-1H-pyrazol-1-yl)-17λ^6-thia-2,8,10,16,22-pentaazatetracyclo[16.3.1.1(5,8).0(9,14)]tricosa-1(21),9(14),10,12,18(22),19-hexaene-15,17,17-trione] | < 1000 nM | +++ (+++ is >60%) |
| CC1(C)C[C@H]2CCCNc3cccc(n3)S(=N)(=O)NC(=O)c3ccc(-n4ccc(OCCC5(C(F)(F)F)CC5)n4)nc3N1C2 (single isomer, unassigned) [Compound 267, 2-imino-12,12-dimethyl-8-(3-{2-[1-(trifluoromethyl)cyclopropyl]ethoxy}-1H-pyrazol-1-yl)-2λ^6-thia-3,9,11,18,23-pentaazatetracyclo[17.3.1.111,14.05,10]tetracosa-1(23),5,7,9,19,21-hexaene-2,4-dione] | < 1000 nM | +++ (+++ is >60%) |
| CC1(C)C[C@@H]2CCCNc3cccc(n3)S(=O)(=O)NC(=O)c3ccc(N4CC[C@H](CCCC5(C(F)(F)F)CC5)C4=O)nc3N1C2 (single isomer, unassigned) [Compound 175] | < 1000 nM | +++ (+++ is >60%) |
| CC1(C)C[C@H]2CCCNc3cccc(n3)S(=O)(=O)NC(=O)c3ccc(-n4ccc(OCCC(C5CC5)C5CC5)n4)nc3N1C2 [Compound 65, (14R)-8-[3-(3,3-dicyclopropylpropoxy)-1H-pyrazol-1-yl]-12,12-dimethyl-2λ^6-thia-3,9,11,18,23-pentaazatetracyclo[17.3.1.111,14.05,10]tetracosa-1(22),5,7,9,19(23),20-hexaene-2,2,4-trione] | < 1000 nM | ++ (++ is 30-60%) |
| CC1(C)C[C@@H]2CCCNc3ccc(O)c(n3)S(=O)(=O)NC(=O)c3ccc(-n4ccc(OCCCC5(C(F)(F)F)CC5)n4)nc3N1C2 [Compound 261, (14S)-22-hydroxy-12,12-dimethyl-8-(3-{3-[1-(trifluoromethyl)cyclopropyl]propoxy}-1H-pyrazol-1-yl)-2λ^6-thia-3,9,11,18,23-pentaazatetracyclo[17.3.1.111,14.05,10]tetracosa-1(22),5,7,9,19(23),20-hexaene-2,2,4-trione] | < 1000 nM | ++ (++ is 30-60%) |
| CC1(C)C[C@H]2CCCNc3cccc(n3)S(=N)(=O)NC(=O)c3ccc(-n4ccc(OCCC5(C(F)(F)F)CC5)n4)nc3N1C2 (single isomer, unassigned) [Compound 272, 2-imino-12,12-dimethyl-8-(3-{2-[1-(trifluoromethyl)cyclopropyl]ethoxy}-1H-pyrazol-1-yl)-2λ^6-thia-3,9,11,18,23-pentaazatetracyclo[17.3.1.111,14.05,10]tetracosa-1(23),5,7,9,19,21-hexaene-2,4-dione] | > 3000 nM | + (+ is <30%) |
| CC1(C)C[C@@H]2CCCNc3cccc(n3)S(=O)(=O)NC(=O)c3ccc(N4CCN(CCC(C)(C)C(F)(F)F)C4=O)nc3N1C2 [Compound 223, (14S)-12,12-Dimethyl-8-[2-oxo-3-(4,4,4-trifluoro-3,3-dimethylbutyl)imidazolidin-1-yl]-2λ^6-thia-3,9,11,18,23-pentaazatetracyclo[17.3.1.111,14.05,10]tetracosa-1(22),5,7,9,19(23),20-hexaene-2,2,4-trione] | < 1000 nM | +++ (+++ is >60%) |
| CC1(C)CC[C@H]2CNc3cccc(n3)S(=O)(=O)NC(=O)c3ccc(-n4ccc(OCCC5(C(F)(F)F)CC5)n4)nc3N21 (single isomer, unassigned) [Compound 51, 7,7-dimethyl-11-(3-{2-[1-(trifluoromethyl)cyclopropyl]ethoxy}-1H-pyrazol-1-yl)-17λ^6-thia-2,8,10,16,22-pentaazatetracyclo[16.3.1.04,8.09,14]docosa-1(22),9,11,13,18,20-hexaene-15,17,17-trione] | > 3000 nM | + (+ is <30%) |
